Measured values published in PubChem BioAssay AID248 (DTP/NCI, 2004).
Where “and” joins values, the source holds several entries; their conditions need not be identical. Equal values may be shown once. Toxic doses and inconclusive results are not listed. Cut-off read from the data, not from the text of the source: active = T/C of 150% or more; inactive = T/C below 125%.

System: L1210 leukemia ip in BDF1 mice, survival T/C
Assay: NCI In Vivo Anticancer Drug Screen. Data for tumor model L1210 Leukemia (intraperitoneal) in B6D2F1 (BDF1) mice
Details: endpoint: mean survival time, higher = longer survival
Outline: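 Read-out is survival time, reported as the treated-group measurement over the vehicle-control measurement.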

[1] = dose: 200.0 mg/kg/injection, schedule: Q04DX003 (ip), vehicle: saline with Tween-80
[2] = dose: 400.0 mg/kg/injection, schedule: Q04DX003 (ip), vehicle: saline with Tween-80
[3] = dose: 100.0 mg/kg/injection, schedule: Q01DX001 (ip), vehicle: other
[4] = dose: 100.0 mg/kg/injection, schedule: Q01DX001 (ip), vehicle: carboxymethylcellulose (CMC)
[5] = dose: 200.0 mg/kg/injection, schedule: Q01DX001 (ip), vehicle: carboxymethylcellulose (CMC)
[6] = dose: 400.0 mg/kg/injection, schedule: Q01DX001 (ip), vehicle: carboxymethylcellulose (CMC)
[7] = dose: 40.0 mg/kg/injection, schedule: Q01DX001 (ip), vehicle: other

Measured: T/C

C/C=C1/CC(C)C(O)(CO)C(=O)OCC2=CCN3CCC(OC1=O)C23 (centres undefined)
inactive: dose: 75.0 mg/kg/injection, schedule: Q01DX001 (ip), vehicle: carboxymethylcellulose (CMC) 100 % of control

COC(=O)c1[nH]cnc1/N=N/N(C)C.[Cl][Cu][Cl]
inactive: dose: 9.0 mg/kg/injection, schedule: Q01DX009 (ip), vehicle: saline 106 % of control and 115 % of control | dose: 13.0 mg/kg/injection, schedule: Q01DX009 (ip), vehicle: saline 107 % of control and 108 % of control | dose: 20.0 mg/kg/injection, schedule: Q01DX009 (ip), vehicle: saline 122 % of control

CCCCOC(=O)c1ccc(OC(=O)Nc2ccc(Cl)cc2)cc1
inactive: dose: 25.0 mg/kg/injection, schedule: Q01DX009 (ip), vehicle: saline with Tween-80 101 % of control and 110 % of control | dose: 50.0 mg/kg/injection, schedule: Q01DX009 (ip), vehicle: saline with Tween-80 101 % of control and 110 % of control | dose: 100.0 mg/kg/injection, schedule: Q01DX001 (ip), vehicle: saline with Tween-80 104 % of control | dose: 100.0 mg/kg/injection, schedule: Q04DX002 (ip), vehicle: saline with Tween-80 93 % of control and 115 % of control | dose: 100.0 mg/kg/injection, schedule: Q04DX003 (ip), vehicle: saline with Tween-80 94 % of control | dose: 200.0 mg/kg/injection, schedule: Q01DX001 (ip), vehicle: saline with Tween-80 95 % of control | dose: 200.0 mg/kg/injection, schedule: Q04DX002 (ip), vehicle: saline with Tween-80 95 % of control and 110 % of control | [1] 94 % of control | dose: 400.0 mg/kg/injection, schedule: Q01DX001 (ip), vehicle: saline with Tween-80 98 % of control | dose: 400.0 mg/kg/injection, schedule: Q04DX002 (ip), vehicle: saline with Tween-80 100 % of control and 106 % of control | [2] 97 % of control

CC(C)(C)C1(C)CC1(Br)Br (centres undefined)
inactive: dose: 50.0 mg/kg/injection, schedule: Q01DX009 (ip), vehicle: saline 98 % of control | dose: 100.0 mg/kg/injection, schedule: Q01DX009 (ip), vehicle: saline 101 % of control | dose: 200.0 mg/kg/injection, schedule: Q01DX009 (ip), vehicle: saline 98 % of control

CCCCCCN(CCCCCC)C(C)=O
inactive: dose: 50.0 mg/kg/injection, schedule: Q04DX003 (ip), vehicle: other 103 % of control | [3] 96 % of control | dose: 100.0 mg/kg/injection, schedule: Q04DX003 (ip), vehicle: other 98 % of control | dose: 200.0 mg/kg/injection, schedule: Q01DX001 (ip), vehicle: other 96 % of control | dose: 200.0 mg/kg/injection, schedule: Q04DX003 (ip), vehicle: other 93 % of control

Cc1cc(=O)[nH]c(N/N=C/c2ccccc2)n1
inactive: dose: 100.0 mg/kg/injection, schedule: Q01DX009 (ip), vehicle: gum acacia 88 % of control | dose: 100.0 mg/kg/injection, schedule: Q04DX003 (ip), vehicle: gum acacia 93 % of control | dose: 200.0 mg/kg/injection, schedule: Q04DX003 (ip), vehicle: gum acacia 97 % of control | dose: 400.0 mg/kg/injection, schedule: Q01DX009 (ip), vehicle: gum acacia 91 % of control | dose: 400.0 mg/kg/injection, schedule: Q04DX003 (ip), vehicle: gum acacia 93 % of control

Cc1cccc(NC(=O)NCCCl)c1C
inactive: [4] 91 % of control | [5] 91 % of control | [6] 93 % of control

CC(C)Oc1c(NCCO)c2cc(Cl)ccc2oc1=O
inactive: dose: 100.0 mg/kg/injection, schedule: Q04DX002 (ip), vehicle: Klucel (hydroxypropylcellulose) (HPC) 103 % of control | dose: 200.0 mg/kg/injection, schedule: Q04DX002 (ip), vehicle: Klucel (hydroxypropylcellulose) (HPC) 106 % of control | dose: 400.0 mg/kg/injection, schedule: Q04DX002 (ip), vehicle: Klucel (hydroxypropylcellulose) (HPC) 106 % of control

CC1(C)N=C(N)N=C(N)N1c1ccc2ccccc2c1
inactive: dose: 5.0 mg/kg/injection, schedule: Q01DX001 (ip), vehicle: other 105 % of control | dose: 10.0 mg/kg/injection, schedule: Q01DX001 (ip), vehicle: other 102 % of control | dose: 20.0 mg/kg/injection, schedule: Q01DX001 (ip), vehicle: other 96 % of control | dose: 25.0 mg/kg/injection, schedule: Q01DX015 (ip), vehicle: other 97 % of control | [7] 105 % of control | dose: 50.0 mg/kg/injection, schedule: Q01DX015 (ip), vehicle: other 107 % of control | dose: 80.0 mg/kg/injection, schedule: Q01DX001 (ip), vehicle: other 100 % of control | [3] 104 % of control

Cc1ccc(N=C2N(c3ccccc3)N(c3ccccc3)C2(c2ccccc2)c2ccccc2)cc1
inactive: [4] 92 % of control | [5] 88 % of control | [6] 88 % of control

CC(=O)O/N=C1\c2ccccc2-c2ccc([N+](=O)[O-])cc21
inactive: dose: 75.0 mg/kg/injection, schedule: Q01DX009 (ip), vehicle: Klucel (hydroxypropylcellulose) (HPC) 93 % of control | dose: 100.0 mg/kg/injection, schedule: Q04DX003 (ip), vehicle: Klucel (hydroxypropylcellulose) (HPC) 97 % of control | dose: 150.0 mg/kg/injection, schedule: Q01DX009 (ip), vehicle: Klucel (hydroxypropylcellulose) (HPC) 86 % of control | dose: 200.0 mg/kg/injection, schedule: Q04DX003 (ip), vehicle: Klucel (hydroxypropylcellulose) (HPC) 95 % of control | dose: 300.0 mg/kg/injection, schedule: Q01DX009 (ip), vehicle: Klucel (hydroxypropylcellulose) (HPC) 86 % of control | dose: 400.0 mg/kg/injection, schedule: Q04DX003 (ip), vehicle: Klucel (hydroxypropylcellulose) (HPC) 100 % of control

O=[N+]([O-])c1ccc(Oc2ccccc2[N+](=O)[O-])cc1
inactive: dose: 222.0 mg/kg/injection, schedule: Q01DX Z (ip), vehicle: methylcellulose (MC) 95 % of control | dose: 333.0 mg/kg/injection, schedule: Q01DX Z (ip), vehicle: methylcellulose (MC) 95 % of control | dose: 500.0 mg/kg/injection, schedule: Q01DX Z (ip), vehicle: methylcellulose (MC) 86 % of control

BrC#CC1=CCCCC1
inactive: dose: 100.0 mg/kg/injection, schedule: Q01DX009 (ip), vehicle: acetone 88 % of control | dose: 100.0 mg/kg/injection, schedule: Q04DX003 (ip), vehicle: saline 105 % of control | dose: 200.0 mg/kg/injection, schedule: Q01DX009 (ip), vehicle: acetone 86 % of control | dose: 200.0 mg/kg/injection, schedule: Q04DX003 (ip), vehicle: saline 103 % of control | dose: 400.0 mg/kg/injection, schedule: Q01DX009 (ip), vehicle: acetone 108 % of control | dose: 400.0 mg/kg/injection, schedule: Q04DX003 (ip), vehicle: saline 107 % of control

O=NN(CCF)C(=O)NC1CCCCCCCCCCC1
inactive: [7] 108 % of control | dose: 60.0 mg/kg/injection, schedule: Q01DX001 (ip), vehicle: other 112 % of control

NNc1ccc(-c2ccc(NN)cc2)cc1
inactive: [1] 95 % of control | [2] 98 % of control
